{"source": "patent US8716355B2", "about": "“Hydroxylated tolans and related compounds in the treatment of a cancer” (Kent State University, priority 2007, dated 2014)", "key": {"Vero cells": {"system": "Vero cells", "experiment": "Cytotoxicity (CD50) on Vero cells", "type": "cell-based", "details": "48 hours of exposure", "text": "See Example II for tumor cell cytotoxicity of these compounds. […] NAB group 32 contains two compounds, Tolan-2 (also designated herein as KST-201) and Stil-2. Based on the NAB, they were classified as topological isomers. However, chemically they differ because Stil-2, a […], contained a double bonded linker, while Tolan-2 contained a triple bonded linker. The cytotoxicity of the two molecules on Vero cells differed markedly: Tolan-2 was less toxic than Stil-2."}, "T24": {"system": "T24", "experiment": "MTT cytotoxicity, T24 bladder cancer cells", "type": "cell-based, human", "experimental": "As a first step, the antitumor activity of the tolans was assessed against a panel of three cancer cells lines that produce solid tumors upon implantation into animals. DU145 is an androgen-independent prostate cancer cells. T24 is a transitional cell bladder carcinoma cell. MDAH2274 (“MDAH) is an endometroid ovarian adenocarcinoma cell. To assess the selectivity of this antitumor activity, the toxicity of the tolans to normal human fibroblasts (MHRF) was examined.\nCell killing was evaluated using the colorimetric MTT assay. The assay measures the formation of a colored product from a chromogenic precursor, the tetrazole 3-[4,5-dimethylthiazol-2-yl]-2,5 diphenyltetrazolium bromide (MTT). The yellow MTT is reduced to purple formazan in the mitochondria of living cells. A solubilization solution (typically dimethyl sulfoxide or sodium dodecyl sulfate in dilute hydrochloric acid) is added to dissolve the insoluble purple formazan product into a colored solution. The absorbance of this colored solution is quantified by measuring at a certain wavelength (usually between 500 and 600 nm) by a spectrophotometer. […] This MTT assay is used widely to assess the cytotoxicity and selectivity of compounds such as anti-cancer drugs. The assay is suitable for rapid toxicity characterization of a test agent such as a drug formulation. […] A lower CD50 indicates a greater cytotoxic activity (as a lower amount of the agent is needed to achieve a fixed level of cytotoxicity). Two agents can be compared by examining the fold-increase or decrease in their CD50 values. […]"}, "A375": {"system": "A375", "experiment": "MTT cytotoxicity, A375 melanoma", "type": "cell-based", "details": "Homo sapiens, A-375, 72 h; 3 Days; read-out: CD50 (μM) A375", "experimental": "(§1) Cell killing was evaluated using the colorimetric MTT assay. The assay measures the formation of a colored product from a chromogenic precursor, the tetrazole 3-[4,5-dimethylthiazol-2-yl]-2,5 diphenyltetrazolium bromide (MTT). The yellow MTT is reduced to purple formazan in the mitochondria of living cells. A solubilization solution (typically dimethyl sulfoxide or sodium dodecyl sulfate in dilute hydrochloric acid) is added to dissolve the insoluble purple formazan product into a colored solution. The absorbance of this colored solution is quantified by measuring at a certain wavelength (usually between 500 and 600 nm) by a spectrophotometer. The amount of purple formazan product generated is proportional to the number of viable cells (Mosmann, T., 1983, J. Immunol. Meth. 65:55-63; Wilson, A. P., Cytotoxicity and Viability Assays. In: Animal Cell Culture: A Practical Approach, 3rd ed. (Masters, J R W, ed.) Oxford University Press: Oxford, Vol. 1, pp. 175-219. 2000). This MTT assay is used widely to assess the cytotoxicity and selectivity of compounds such as anti-cancer drugs. The assay is suitable for rapid toxicity characterization of a test agent such as a drug formulation. […] A lower CD50 indicates a greater cytotoxic activity (as a lower amount of the agent is needed to achieve a fixed level of cytotoxicity). […]"}, "SKMEL28": {"system": "SKMEL28", "experiment": "MTT cytotoxicity, SKMEL28 melanoma", "type": "cell-based", "details": "Homo sapiens, SK-MEL-28, 72 h; 3 Days; read-out: CD50 (μM) SKMEL28", "experimental": "as §1"}, "human recombinant COX-2": {"target": "T1, human recombinant COX-2 (Homo sapiens, UniProt P35354)", "T1 construct": "purchased Cayman Chemical 560131", "T1 sequence (P35354 18-604)": "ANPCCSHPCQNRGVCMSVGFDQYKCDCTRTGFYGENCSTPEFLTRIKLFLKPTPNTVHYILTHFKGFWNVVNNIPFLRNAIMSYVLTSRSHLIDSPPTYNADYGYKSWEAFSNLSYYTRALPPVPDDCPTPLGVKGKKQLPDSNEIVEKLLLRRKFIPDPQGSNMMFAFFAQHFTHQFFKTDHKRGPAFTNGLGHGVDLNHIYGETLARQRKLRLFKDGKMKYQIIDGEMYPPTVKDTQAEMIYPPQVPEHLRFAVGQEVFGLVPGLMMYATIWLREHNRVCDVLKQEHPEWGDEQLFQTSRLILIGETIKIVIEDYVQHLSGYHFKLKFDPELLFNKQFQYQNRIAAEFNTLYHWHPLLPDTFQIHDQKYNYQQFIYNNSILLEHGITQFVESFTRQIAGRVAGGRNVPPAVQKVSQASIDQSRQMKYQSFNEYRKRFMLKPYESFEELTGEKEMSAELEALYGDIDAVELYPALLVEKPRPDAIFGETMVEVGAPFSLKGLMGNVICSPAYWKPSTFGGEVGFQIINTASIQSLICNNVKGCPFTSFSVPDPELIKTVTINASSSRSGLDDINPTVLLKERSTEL", "experiment": "COX Inhibitor Screening Assay, COX2", "type": "biochemical", "details": "doses of 10 to 200 μM tested", "text": "The Cayman COX Inhibitor Screening Assay includes both ovine COX-1 and human recombinant COX-2 enzymes in order to screen isozyme-specific inhibitors."}, "prostate cancer": {"system": "prostate cancer", "experiment": "Prostate cancer patients (Example VIII A)", "type": "in vivo, human", "details": "daily 10 μg to 5 mg/Kg; no significant differences between the four groups", "experimental": "A group of 40 men aged 55-75 suffering from prostate cancer receive a daily dosage of between 10 μg and 5 mg/Kg body weight of KST-201, KST-213, KST-301 or KST-401 (10 patients per compound). Examination of the patients by clinical, radiographic and histopathological tests show significant shrinkage in tumors, and signs of cell death in 38% of the patients; there are no significant differences between the four treatment groups."}, "breast cancer": {"system": "breast cancer", "experiment": "Breast cancer prevention, skin patch (Example VIII C)", "type": "in vivo, human", "details": "transdermal patch 10 mg to 100 mg daily, one-year study", "experimental": "This study investigates whether KST-201, KST-213, KST-301 and KST-401 administered transdermally each day through a skin patch aid in preventing breast cancer or metastatic cancer following cancer therapy. Patches are prepared with a lipophilic carrier which is readily absorbed through the skin (glycerol cold cream containing glycerin and peanut oil). The HT compound is mixed with the lipophilic cream such that each patch comprises 10 mg to 100 mg of active compound. The patch is applied to the skin each day, and rapid absorption occurs. After two hours, the patch is removed."}, "colon cancer": {"system": "colon cancer", "experiment": "Colon cancer patients (Example VIII E)", "type": "in vivo, human", "experimental": "Eight patients suffering from advanced colon cancer are treated daily for three weeks with an intravenous infusion of 2 g of the compounds KST-201, KST-213, KST-301 or KST-401 dissolved in saline. Two patients are assigned to each compound. The compounds are dissolved in sterile saline. […] Progression of the tumor is also arrested over the treatment period.\nAnother eight patients with terminal colon cancer are treated by daily bolus injections (intravenous or intramuscular) of 2 g of KST-201, KST-213, KST-301 or KST-401."}, "rat-organ homogenates [1]": {"system": "rat-organ homogenates", "details": "cited from earlier work"}, "rat-organ homogenates [2]": {"system": "rat-organ homogenates", "details": "cited from earlier work", "remark": "listed apart in the source"}, "rat erythrocyte (RBC)": {"system": "rat erythrocyte (RBC)", "details": "cited from earlier work"}, "[3]": {"details": "MTT, 1 day incubation, read-out: CD50 against T24, compound tested individually"}, "[4]": {"details": "intravenous infusion 2 g daily for three weeks"}}, "note": "Where “and” joins values, the source holds several entries; their conditions need not be identical. Equal values may be shown once. Read-outs that look alike come from different tables or passages of the source."}
{"smiles": "Oc1ccc(C#Cc2ccc(O)cc2)cc1", "note": "[KST-201, 4,4′-dihydroxytolan]", "values": [{"measurement": "CD50", "setting": "Vero cells", "result": 106, "unit": "µM"}, {"measurement": "Log CD50", "setting": "Vero cells", "result": 2.03}, {"measurement": "Fold more potent in killing T24 cells vs. control MHRF fibroblasts", "setting": "T24", "result": 18, "unit": "fold"}, {"measurement": "IC50", "setting": "T24; Homo sapiens, T-24, 24 h, VC:KST-201 200:1, 1 day, read-out: CD50 (μM) of each Compound tested in combination, T24", "result": 3.19, "unit": "µM"}, {"measurement": "IC50", "setting": "T24; Homo sapiens, T-24, 48 h, VC:KST-201 200:1, 2 days, read-out: CD50 (μM) of each Compound tested in combination, T24", "result": 3.17, "unit": "µM"}, {"measurement": "IC50", "setting": "T24; Homo sapiens, T-24, 72 h, MTT, 3 days incubation, read-out: CD50 against T24", "result": 8.5, "unit": "µM"}, {"measurement": "IC50", "setting": "T24; [3]", "result": "83 µM and 82.6 µM"}, {"measurement": "IC50", "setting": "T24; MTT, 2 days incubation, read-out: CD50 against T24, compound tested individually", "result": "31.1 ± 0.81", "unit": "µM"}, {"measurement": "Fold more toxic to T24 bladder cancer cells than resveratrol", "setting": "T24; Table 15 vs Table 14", "result": 2.8, "unit": "fold"}, {"measurement": "Increase of cytotoxic potency when given together, T24", "setting": "T24; VC:KST-201 200:1", "result": "about 7 fold"}, {"measurement": "IC50", "setting": "A375", "result": "4.6 ± 0.1", "unit": "µM"}, {"measurement": "IC50", "setting": "SKMEL28", "result": "82 ± 10", "unit": "µM"}, {"measurement": "Inhibition of COX2 activity", "setting": "human recombinant COX-2", "result": "about 50%"}, {"measurement": "Patients with significant shrinkage in tumors, and signs of cell death", "setting": "prostate cancer", "result": 38, "unit": "%"}, {"measurement": "Breast cancer or metastatic cancer in high-risk group", "setting": "breast cancer", "result": "does not show any evidence of breast cancer or other metastatic cancer"}, {"measurement": "Dissemination of the tumors", "setting": "colon cancer; daily bolus injections (intravenous or intramuscular) of 2 g", "result": "dissemination of the tumors is diminished"}, {"measurement": "Cancer marker carcinoembryonic antigen (CEA)", "setting": "colon cancer; [4]", "result": "significant reduction"}, {"measurement": "Progression of the tumor", "setting": "colon cancer; [4]", "result": "arrested"}]}
{"smiles": "Oc1ccc(/C=C/c2cc(O)cc(O)c2)cc1", "note": "[Resveratrol, 3,5,4′-trihydroxy-trans-stilbene, reference compound]", "values": [{"measurement": "CD50", "setting": "Vero cells", "result": 264, "unit": "µM"}, {"measurement": "Log CD50", "setting": "Vero cells", "result": 2.42}, {"measurement": "IC50", "setting": "T24; Homo sapiens, T-24, 24 h, MTT, 1 day incubation, read-out: CD50 against T24, compound tested individually", "result": 36, "unit": "µM"}, {"measurement": "IC50", "setting": "T24; Homo sapiens, T-24, 48 h, MTT, 2 days incubation, read-out: CD50 against T24, compound tested individually", "result": "29.1 ± 0.05", "unit": "µM"}, {"measurement": "IC50", "setting": "T24; [3]", "result": "35.7 ± 1", "unit": "µM"}, {"measurement": "IC50", "setting": "T24; MTT, 3 days incubation, listed as resveratrol, read-out: CD50 against T24", "result": 23, "unit": "µM"}, {"measurement": "IC50", "setting": "T24; MTT, 3 days incubation, read-out: CD50 against T24", "result": "22.6 ± 0.25", "unit": "µM"}, {"measurement": "IC50", "setting": "A375", "result": "19 ± 0.2", "unit": "µM"}, {"measurement": "IC50", "setting": "SKMEL28", "result": "69 ± 1.2", "unit": "µM"}, {"measurement": "Inhibition (%) of Fe2+ − VitC induced level of MDA at 15 μM, In rat brain", "setting": "rat-organ homogenates [1]; rat brain", "result": 83.20, "unit": "%"}, {"measurement": "Inhibition (%) of Fe2+ − VitC induced level of MDA at 15 μM, In rat kidney", "setting": "rat-organ homogenates [1]; rat kidney", "result": 62.15, "unit": "%"}, {"measurement": "Inhibition (%) of Fe2+ − VitC induced level of MDA at 15 μM, In rat liver", "setting": "rat-organ homogenates [1]; rat liver", "result": 50.36, "unit": "%"}, {"measurement": "Inhibition (%) of autooxidation MDA level at 7.5 μM, In rat brain", "setting": "rat-organ homogenates [2]; rat brain", "result": 69.93, "unit": "%"}, {"measurement": "Inhibition (%) of autooxidation MDA level at 7.5 μM, In rat kidney", "setting": "rat-organ homogenates [2]; rat kidney", "result": 40.37, "unit": "%"}, {"measurement": "Inhibition (%) of autooxidation MDA level at 7.5 μM, In rat liver", "setting": "rat-organ homogenates [2]; rat liver", "result": 67.69, "unit": "%"}, {"measurement": "Inhibition (%) of RBC hemolysis induced by H2O2 at 4 μM", "setting": "rat erythrocyte (RBC)", "result": 45.23, "unit": "%"}]}
